Assay results reported in patent US4966900A, “Cephalosporin β-lactam compound and medicinal composition” (priority 1986, dated 1990).
≈ marks a conversion by molar mass, not a printed value. Structures can show the parent of a compound that is named as a salt. Where two headings read alike, the source gives them in different places.

Key:
[1] = test system: C. freundii 1U589; experiment: MIC
[2] = test system: P. cepacia OF189; experiment: MIC; conditions: Burkholderia cepacia, OF189, P. cepacia OF189
[3] = test system: C. freundii 1R526; experiment: MIC
[4] = test system: E. cloacae 1V25; experiment: MIC; conditions: Enterobacter cloacae
[5] = test system: C. freundii 1R523; experiment: MIC
[6] = test system: C. freundii GN7391; experiment: MIC; conditions: Citrobacter freundii, GN7391, C. freundii GN7391
[7] = test system: P. maltophilia OF247; experiment: MIC; conditions: Stenotrophomonas maltophilia
[8] = test system: E. coli NIHJ JC-2; experiment: MIC; type: cell-based; conditions: Escherichia coli, NIHJJC2, Table 2, sodium salt
Method: (§1) The minimum inhibition concentrations (MIC) of the compounds obtained in Example 1 and Example 2 were measured according to the standard method of Japanese Chemotherapy Association.

[9] = test system: A. calcoaceticu OF1063; experiment: MIC; type: cell-based; conditions: Table 2, sodium salt
Method: as §1

[10] = test system: A. xylosoxidans OF1001; experiment: MIC; type: cell-based; conditions: Achromobacter xylosoxidans, Table 2, sodium salt
Method: as §1

[11] = test system: E. coli ML4707; experiment: MIC; conditions: Escherichia coli, ML4707, E. coli ML4707
[12] = test system: S. aureus Smith; experiment: MIC; conditions: Staphylococcus aureus
[13] = test system: E. cloacae 5D63-2; experiment: MIC
[14] = test system: E. cloacae 1Y247; experiment: MIC; type: cell-based
Method: (§2) The minimum inhibition concentrations (MIC) of the compounds obtained in the respective examples described above were measured according to the standard method of Japanese Chemotherapy Association.

[15] = test system: C. freundii 1R524; experiment: MIC
[16] = test system: K. pneumoniae 4at521; experiment: MIC
[17] = test system: E. coli GN5482; experiment: MIC; conditions: Escherichia coli, GN5482, E. coli GN5482
[18] = test system: C. freundii 1R527; experiment: MIC
[19] = test system: P. aeruginosa 4au542; experiment: MIC; conditions: Pseudomonas aeruginosa, 4AU542, P. aeruginosa 4au542
[20] = test system: E. cloacae 5D52-2; experiment: MIC
[21] = test system: P. aeruginosa GN10362; experiment: MIC
[22] = in vivo; parameters: species or system Macaco; conditions: monkey, 20 mg/kg
Method: Each of 20 mg/kg of the compounds obtained in Example 2, Example 25 and Example 28 was administered parenterally to Macaco and the half-time in blood was measured.
The concentrations of the compounds were measured according to HPLC method. Novapack C18 or Microbondapack C18 (trade name, produced by Waters Co.) was used as a column. Further, cefpiramide was used as a control drug.

[23] = test system: C. freundii 1U692; experiment: MIC
[24] = test system: P. vulgaris GN7919; experiment: MIC
[25] = test system: S. marcescens GN10857; experiment: MIC; conditions: Serratia marcescens, GN10857, S. marcescens GN10857
[26] = test system: E. cloacae 908RN; experiment: MIC; conditions: Enterobacter cloacae
[27] = test system: E. colacae GN7471; experiment: MIC
[28] = test system: C. freundii 5D60-1; experiment: MIC
[29] = test system: P. aeruginosa 5D58-1; experiment: MIC; conditions: Pseudomonas aeruginosa, 5D581, P. aeruginosa 5D58-1
[30] = test system: S. aureus IAA498; experiment: MIC; type: cell-based; conditions: Staphylococcus aureus, Table 5
Method: as §2

[31] = Enterobacter cloacae, Table 3, sodium salt, read-out: MIC
[32] = Pseudomonas aeruginosa, GN10362
[33] = E. cloacae 908RN, Table 3, sodium salt
[34] = E. colacae 908RN, Table 2, sodium salt

Cc1cc(SCC2=C(C(=O)O)N3C(=O)C(NC(=O)C(=NOC(C)(C)C(=O)NNC(=O)c4ccc(O)c(O)c4)c4csc(N)n4)C3SC2)n2nc(C(=O)O)nc2n1 (stereo not drawn) [Example 2]
MIC ([1]; Citrobacter freundii, 1U589): 0.78 µg/mL (≈ 0.942 µM)
MIC ([2]; Table 2, sodium salt): < 0.006 µg/mL
MIC ([3]; Citrobacter freundii, 1R526): 0.78 µg/mL (≈ 0.942 µM)
MIC [4]: 6.25 µg/mL (≈ 7.55 µM)
MIC ([5]; Citrobacter freundii, 1R523): 1.56 µg/mL (≈ 1.88 µM)
MIC ([6]; Table 2, sodium salt): 12.5 µg/mL
MIC ([6]; Table 3, sodium salt): 12.5 µg/mL
MIC ([7]; Table 2, sodium salt): 0.2 µg/mL
MIC [8]: 0.1 µg/mL
MIC [9]: 3.13 µg/mL
MIC [10]: 0.78 µg/mL
MIC ([11]; Table 2, sodium salt): 0.01 µg/mL
MIC ([12]; Table 2, sodium salt): 6.25 µg/mL
MIC ([13]; Enterobacter cloacae, 5D632): 0.78 µg/mL (≈ 0.942 µM)
MIC [14, 31]: 6.25 µg/mL
MIC ([15]; Citrobacter freundii, 1R524): 0.78 µg/mL (≈ 0.942 µM)
MIC ([16]; Klebsiella pneumoniae, 4AT521): 0.012 µg/mL (≈ 0.0145 µM)
MIC ([17]; Table 2, sodium salt): 0.1 µg/mL
MIC ([18]; Citrobacter freundii, 1R527): 0.78 µg/mL (≈ 0.942 µM)
MIC ([19]; Table 2, sodium salt): 0.2 µg/mL
MIC ([20]; Enterobacter cloacae, 5D522): 0.2 µg/mL (≈ 0.242 µM)
MIC [21, 32]: 0.2 µg/mL (≈ 0.242 µM)
half-life [22]: 5.3 h
MIC ([23]; Citrobacter freundii, 1U692): 1.56 µg/mL (≈ 1.88 µM)
MIC ([24]; Proteus vulgaris, GN7919): 0.78 µg/mL (≈ 0.942 µM)
MIC ([25]; Table 2, sodium salt): 0.2 µg/mL
MIC [26, 33]: 3.13 µg/mL
MIC [26, 34]: 1.56 µg/mL
MIC ([27]; Table 2, sodium salt): 6.25 µg/mL
MIC ([28]; Citrobacter freundii, 5D601): 1.56 µg/mL (≈ 1.88 µM)
MIC ([29]; Table 2, sodium salt): 0.39 µg/mL

Cc1cc(SCC2=C(C(=O)O)N3C(=O)C(NC(=O)C(=NOC(C)(C)C(=O)NNC(=O)c4ccc(O)c(O)c4)c4csc(N)n4)C3SC2)n2ncnc2n1 (stereo not drawn) [Example 12, 7-{2-[2-Amino-1,3-thiazol-4-yl]-2-[1-(3-(3,4-dihydroxybenzoyl)carbazoyl)-1-methylethoxyimino]acetamide}-3-[(5-methyl-s-triazolo[1,5-a]-pyrimidin-7-yl)thiomethyl]-3-cephem-4-carboxylic acid.hydrochloride]
MIC ([1]; C. freundii 1U589, Table 6): 1.56 µg/mL
MIC ([1]; Citrobacter freundii, 1U589): 1.56 µg/mL
MIC ([2]; Table 2, sodium salt): 0.025 µg/mL
MIC ([2]; Table 5): 0.012 µg/mL
MIC ([3]; C. freundii 1R526, Table 6): 1.56 µg/mL
MIC ([3]; Citrobacter freundii, 1R526): 1.56 µg/mL
MIC ([5]; C. freundii 1R523, Table 6): 0.78 µg/mL
MIC ([5]; Citrobacter freundii, 1R523): 0.78 µg/mL
MIC ([6]; Table 2, sodium salt): 12.5 µg/mL
MIC ([6]; Table 3, sodium salt): 25 µg/mL
MIC ([6]; Table 5): 6.25 µg/mL
MIC ([6]; Table 6): 25 µg/mL
MIC ([7]; Table 2, sodium salt): 0.78 µg/mL
MIC ([7]; Table 5): 0.39 µg/mL
MIC [8]: 0.1 µg/mL
MIC [9]: 12.5 µg/mL
MIC [10]: 0.78 µg/mL
MIC ([11]; Table 2, sodium salt): 0.012 µg/mL
MIC ([11]; Table 5): < 0.006 µg/mL
MIC ([12]; Table 2, sodium salt): 0.78 µg/mL
MIC ([12]; Table 5): 3.13 µg/mL
MIC ([13]; E. cloacae 5D63-2, Table 6): 3.13 µg/mL
MIC ([13]; Enterobacter cloacae, 5D632): 3.13 µg/mL
MIC [30]: 6.25 µg/mL
MIC [14, 31]: 25 µg/mL
MIC ([14]; Table 6): 25 µg/mL
MIC ([15]; C. freundii 1R524, Table 6): 0.78 µg/mL
MIC ([15]; Citrobacter freundii, 1R524): 0.78 µg/mL
MIC ([16]; K. pneumoniae 4at521, Table 5): 0.012 µg/mL
MIC ([16]; Klebsiella pneumoniae, 4AT521): 0.012 µg/mL
MIC ([17]; Table 2, sodium salt): 0.1 µg/mL
MIC ([17]; Table 5): 0.012 µg/mL
MIC ([18]; C. freundii 1R527, Table 6): 0.78 µg/mL
MIC ([18]; Citrobacter freundii, 1R527): 0.78 µg/mL
MIC ([19]; Table 2, sodium salt): 0.1 µg/mL
MIC ([19]; Table 5): 0.2 µg/mL
MIC ([20]; E. cloacae 5D52-2, Table 6): 0.2 µg/mL
MIC ([20]; Enterobacter cloacae, 5D522): 0.2 µg/mL
MIC ([21]; P. aeruginosa GN10362, Table 5): 0.1 µg/mL
MIC [21, 32]: 0.1 µg/mL
MIC ([23]; C. freundii 1U692, Table 6): 3.13 µg/mL
MIC ([23]; Citrobacter freundii, 1U692): 3.13 µg/mL
MIC ([24]; P. vulgaris Gn7919, Table 5): 0.78 µg/mL
MIC ([24]; Proteus vulgaris, GN7919): 0.78 µg/mL
MIC ([25]; Table 2, sodium salt): 1.56 µg/mL
MIC ([25]; Table 5): 0.39 µg/mL
MIC [26, 33]: 3.13 µg/mL
MIC ([26]; E. cloacae 908RN, Table 6): 3.13 µg/mL
MIC [26, 34]: 3.13 µg/mL
MIC ([26]; E. colacae 908RN, Table 5): 3.13 µg/mL
MIC ([27]; Table 2, sodium salt): 3.13 µg/mL
MIC ([27]; Table 5): 1.56 µg/mL
MIC ([28]; C. freundii 5D60-1, Table 6): 3.13 µg/mL
MIC ([28]; Citrobacter freundii, 5D601): 3.13 µg/mL
MIC ([29]; Table 2, sodium salt): 0.1 µg/mL
MIC ([29]; Table 5): 0.2 µg/mL
